What was measured:
[1] = tested on: retinoblastoma protein (Rb) phosphorylation in HCT116 cells; assay: Rb phosphorylation in HCT116 cells by Western blot and ELISA; assay type: cell-based, human; details: HCT116, 20 hours, 0.1, 0.2 and 0.6 μM
Procedure: Cells were washed 3 times with cold PBS on ice and scraped from the flasks. All cells were collected in 15 ml tubes. Cells were pelleted by centrifugation and lysis buffer was added (1:1 PBS: 2× Tris-Glycine SDS Sample Buffer (Invitrogen, Carlsbad, Calif.) containing 5% 2-β mercaptoethanol). The volume of lysis buffer used was 5 ul per 1×10^6 cells. Samples were sonicated for 30 seconds on ice. Following sonication, samples were clarified by centrifugation at 16,000×g for 10 minutes at 4° C. and protein concentrations were determined using Non-Interfering Protein Assay Kit (Geno Technology Incorporated, Maplewood, Mo.). Proteins were denatured by boiling for 5 minutes and centrifuged as described above. […] For Western blotting, total Rb was detected using antibody from Pharmingen (BD Bioscience, San Diego, Calif.) at a dilution of 1:2000. The phosphorylation status of Rb at serine 780, serine 795 and serine 807/811 was detected with phosphospecific antibodies at dilutions of 1:1000 (Cell Signaling Technology, Beverly, Mass.). […]
HCT116 cells were treated for 20 hours at the IC50 (0.1 μM), IC90 (0.2 μM) and 3×IC90 (0.6 μM) concentrations for cell growth inhibition, as determined in a 5-day proliferation assay. Lysates were analyzed by Western blotting for Rb phosphorylation at serine 795 and serine 780 (FIG. 1). […]

[2] = tested on: retinoblastoma protein (Rb) phosphorylation in MTLn3 cells; assay: Rb phosphorylation in MTLn3 cells by Western blot; assay type: cell-based, rat; details: MTLn3, 20 hours, 0.17, 0.24 and 0.72 μM
Procedure: Cells were washed 3 times with cold PBS on ice and scraped from the flasks. All cells were collected in 15 ml tubes. Cells were pelleted by centrifugation and lysis buffer was added (1:1 PBS: 2× Tris-Glycine SDS Sample Buffer (Invitrogen, Carlsbad, Calif.) containing 5% 2-β mercaptoethanol). The volume of lysis buffer used was 5 ul per 1×10^6 cells. Samples were sonicated for 30 seconds on ice. Following sonication, samples were clarified by centrifugation at 16,000×g for 10 minutes at 4° C. and protein concentrations were determined using Non-Interfering Protein Assay Kit (Geno Technology Incorporated, Maplewood, Mo.). Proteins were denatured by boiling for 5 minutes and centrifuged as described above. […] For Western blotting, total Rb was detected using antibody from Pharmingen (BD Bioscience, San Diego, Calif.) at a dilution of 1:2000. The phosphorylation status of Rb at serine 780, serine 795 and serine 807/811 was detected with phosphospecific antibodies at dilutions of 1:1000 (Cell Signaling Technology, Beverly, Mass.).
Lysates were analyzed by Western blotting for Rb phosphorylation using polyclonal antibodies prepared against a peptide corresponding to sequences surrounding phosphorylated serine 807/811 in human Rb (FIG. 3).

[3] = tested on: Rb phosphorylation in rat PBMCs; assay: Rb phosphorylation in ex vivo PMA-stimulated rat PBMCs after a single oral dose; details: single oral dose 80 mg/kg
Procedure: The dose selected was 80 mg/kg, determined to be an efficacious dose in this animal model. Tumor growth inhibition in the MTLn3 xenograft model after 2 to 3 weeks of oral dosing at 80 mg/kg once weekly averaged 90% with 2/10 complete regressions. COMPOUND A was dosed on day 10 post implantation of cells, at which time the tumors were 100-200 mm^3 in size. In this pharmacokinetic/pharmacodynamic experiment, plasma and tumors were collected at 1, 2, 6, 24 and 72 hours post dosing of a single oral dose of COMPOUND A. Tumors were removed and immediately snap frozen in liquid nitrogen and stored at −80° C. until drug concentration analysis. […] Concentrations of COMPOUND A in plasma and tumors were determined in the same three animals per time point. […] Peripheral blood mononuclear cells (PBMCs) were isolated, stimulated ex vivo with mitogen and analyzed by Western blot as described below. […]
PBMCs were collected by transferring the cells, including attached cells and those in suspension, into 50 ml tubes. […] Samples were sonicated on ice for 30 seconds, clarified by centrifugation at 16,000×g for 10 minutes at 4° C. and protein concentrations determined using Non-Interfering Protein Assay Kit (Geno Technology Incorporated, Maplewood, Mo.). […] For Western blotting, total Rb was detected using antibody from Pharmingen (BD Bioscience, San Diego, Calif.) at a dilution of 1:2000. […]

COc1ccc(F)c(F)c1C(=O)c1cnc(NC2CCN(S(C)(=O)=O)CC2)nc1N [COMPOUND A, [4-amino-2-(1-methanesulfonylpiperidin-4-ylamino)pyrimidin-5-yl]-(2,3-difluoro-6-methoxyphenyl)methanone]
Rb phosphorylation at serine 795, serine 780 (Western blot) and threonine 821 (ELISA) [1]: inhibition of phosphorylation at all three CDK phosphorylation sites in a concentration-dependent fashion | Rb phosphorylation at epitope recognized by anti-phospho-serine 807/811 antibody [2]: inhibition of phosphorylation | Total Rb levels in PBMCs ([3]; female Fischer rats): did not appear to decrease | Rb phosphorylation (serine 795) in ex vivo stimulated PBMCs ([3]; female Fischer rats, 2, 6 and up to 24 hours post treatment, Western blot): decrease in Rb phosphorylation

Source: patent US20060269482A1 (priority 2005, published 2006)
